In patent US9700531B2, “Composition comprising metformin as active ingredient for preventing or treating inflammatory bowel disease” (CATHOLIC UNIVERSITY INDUSTRY ACADEMIC COOPERATION FOUNDATION, priority 2012, dated 2017):
“Also recorded” adds a separate entry of the source.

Columns and labels:
[1] = test system: spleen cells of a normal mouse group; experiment: ROS measurement by FACs (ROS antibody, FITC) in spleen cells of a normal mouse group; format: cell-based; conditions: cells collected at 3 days after treatment
Description: The oxidative stress was known to be an important factor involved in the inflammatory responses of various autoimmune diseases. […] Enbrel®) composite and at 3 days later, each cell was collected and reacted with an ROS antibody with a FITC wavelength range, and then, was measured using fluorescence activated cell sorting (FACs).

[2] = test system: spleen cells of a normal mouse group; experiment: ELISA of cytokines in culture media of treated cells of the normal mouse group; format: cell-based; conditions: culture media collected at 3 days after treatment
Source text: The inventors treated Metformin and the Metformin-Etanercept (Product Name: Enbrel®) composite to the cells of the normal mouse group to identify the effects of Etanercept (Product Name: Enbrel®) and Metformin on the expression of cytokine.

[3] = test system: colorectal tissues of the group with an inflammatory bowel disease; experiment: Expression of inflammatory cytokines in colorectal tissues and cells of the large intestine of mouse injected with Metformin; format: in vivo
Source text: FIGS. 6A-6B illustrate the results of measuring the inflammatory cytokine regulations caused by Metformin in the colorectal tissues and colorectal cells of the group with an inflammatory bowel disease.
Furthermore, the expressions of the inflammatory cytokine IL-10 and TGF-b were increased by Metformin.

[4] = test system: lymph node of the group with an inflammatory bowel disease; experiment: Expression of inflammatory cytokines in lymph node of mouse injected with Metformin; format: in vivo
Source text: FIG. 7 illustrates the result of measuring the inflammatory cytokine regulations caused by Metformin in the lymph node tissues and cells of the group with an inflammatory bowel disease.

[5] = test system: Th17 cell and regulatory Treg cell in the spleen; experiment: Th17 cells and regulatory Treg cells in spleen of mouse injected with Metformin (confocal assay); format: in vivo
[6] = test system: inflammatory bowel disease-induced animal model; experiment: Inflammatory bowel disease animal model (3.5% DSS water for a week): weight, survival, thickness of small intestine, length of large intestine; format: in vivo, C57BL/6(H-2kb) mouse; conditions: for thickness of the intestine: Metformin 5 mg oral, Etanercept 100 μg subcutaneous or composite, at 3 days after induction
Source text: The inventors of the present invention first prepared the animal model with an inflammatory bowel disease in order to identify whether the Metformin of the present invention can treat an inflammatory bowel disease. For an experimental animal, a C57BL/6(H-2kb) mouse was used, and to prepare the animal model with an inflammatory bowel disease, the mouse taken with 3.5% dextran sulfate sodium (DSS) water for a week to prepare an animal model with an inflammatory bowel disease.
The inventors divided the experimental animals into an inflammatory bowel disease-induced animal model group, and an inflammatory bowel disease-induced animal model group, which was administered with Metformin, and for the group being administered with Metformin, 5 mg of Metformin was orally administered at 3 days after the disease was induced.

[7] = test system: cell line of human large intestine; experiment: Gene expression of inflammatory cytokines in cell line of human large intestine treated with Metformin; format: cell-based
Description: The gene expressions of the inflammatory cytokines TNF-α, IL-8, and IL-1b were investigated after the cell line of human large intestine was treated with Metformin.

[8] = test system: spleen cells of a normal mouse group
[9] = test system: STAT3, mTOR, AMPK, STAT5 in spleen tissue; experiment: Signaling molecules in spleen of mouse administered with Metformin (tissue confocal, spleen cell proteins); format: in vivo
[10] = 5 mg Metformin orally 3 days after induction, versus control group
[11] = 5 mg Metformin orally, the words describe the control group relative to the Metformin group

CN(C)C(=N)NC(=N)N [Metformin]
ROS inhibition [1]: no ROS inhibitory effect; also recorded: no effects of ROS inhibition | expression of IL-17 (ELISA) [2]: effective in inhibiting | expression of IL-6 in colorectal tissues (histological findings) [3]: considerable decrease | expression of IL-8 in colorectal tissues (histological findings) [3]: considerable decrease | expression of IL-17 in colorectal tissues (histological findings) [3]: considerable decrease | expression of TNF-α in colorectal tissues (histological findings) [3]: considerable decrease | gene expressions of the inflammatory cytokines in the cells of the large intestine [3]: considerably inhibited | Foxp3 (regulatory T cell factor) ([3]; large intestine): increased | expression of IL-10 ([3]; large intestine): increased | expression of TGF-b ([3]; large intestine): increased | gene expression of IL-6 in lymph node [4]: considerable decreases | gene expression of IL-17 in lymph node [4]: considerable decreases | gene expression of IL-21 in lymph node [4]: considerable decreases | gene expression of TNF-α in lymph node [4]: considerable decreases | expressions of Th17 cells in spleen [5]: considerably inhibited | regulatory T cells that express Foxp3 in spleen [5]: significantly increased | survival rates (in words) [6, 10]: higher survival rates | weights (in words) [6, 10]: increase in weights | survival rate ([6]; 5 mg Metformin orally at 3 days after disease induction, control group had low survival rate): 100% | length of large intestine (histological findings) [6, 11]: shortened length was observed | thickness of small intestine (histological findings) [6, 11]: narrower than the group treated with Metformin | thickness of the intestine ([6]; versus control group): thicker | gene expression of IL-1b [7]: inhibited in a Metformin concentration dependent manner | gene expression of IL-8 [7]: inhibited in a Metformin concentration dependent manner | gene expression of TNF-α [7]: inhibited in a Metformin concentration dependent manner | toxic effects (MTT assay) [8]: no toxic effects | activated AMPK ([9]; spleen cell proteins): increased | phosphorylated STAT3, 705, and 727 ([9]; spleen cell proteins): significantly inhibited | activity of STA3 in spleen cells ([9]; tissue confocal): considerably inhibited | activity of mTOR in spleen cells ([9]; tissue confocal): considerably inhibited | cells with the activated AMPK ([9]; tissue confocal, spleen): increased | cells with the activated STAT5 ([9]; tissue confocal, spleen): increased

Etanercept
ROS inhibition [1]: no ROS inhibitory effect; also recorded: no effects of ROS inhibition | expression of IL-17 (ELISA) [2]: effective in inhibiting | thickness of the intestine ([6]; versus control group): thicker | toxic effects (MTT assay) [8]: no toxic effects
